Results on ten compounds are retold here after patent US11952365B2, “Anti-viral compounds” (Aligos Therapeutics, Inc., priority 2020, dated 2024).

Like-named read-outs stand apart in the source and are kept apart here. Some results are limits rather than exact numbers.

As a reminder, the IC50 is the concentration that inhibits the measured activity by half. Usually EC50 stands for the concentration needed to bring the measured effect to its halfway point.

The target in one series is HRV3C (Human rhinovirus 14, UniProt P03303). Description: HRV3C protease assay (duplex, SAMDI-MS). Format: biochemical, HRV. Particulars: 30 mins preincubation. In outline: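 Duplex format with 3CLpro; 30 min enzyme–compound preincubation, 30 min reaction with two peptide substrates, ambient temp. Stop: 0.5% formic acid, neutralized with 1% NaHCO3 (finals). Readout SAMDI-MS, product AUC over internal standard AUC; four-parameter IC50.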

In series [1] the test system is human beta-coronavirus OC43. Description: microbe, parasite or virus in culture. Format: cell-based. Particulars: Betacoronavirus 1, OC43, HeLa, 144 h.
The nature of series [2]: Cytotoxicity plates without OC43 virus (cell-titer-glo). Format: cell-based, human. The settings on record: human; HeLa cells without OC43 virus, class symbols. In outline:
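HeLa cells seeded overnight, then treated with serially diluted compounds in 2% FBS EMEM, uninfected, in parallel with the OC43 antiviral plates. Incubated 6 days at 33 °C; viability read by CellTiter-Glo luminescence.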

For series [3], the system named is SARS-CoV-2-GHB-03021/2020. Description: SARS-CoV-2 Infection Model in Huh7 Cells. Format: cell-based. Particulars: Severe acute respiratory syndrome coronavirus 2, Huh-7, 96 h, SARS-CoV-2, day 4 p.i., MTS.
For series [4], the system named is SARS-CoV-2-GHB-03021/2020. Description: microbe, parasite or virus in culture. The class given is cell-based. The settings on record: Severe acute respiratory syndrome coronavirus 2, Vero C1008, 96 h; read-out: VeroE6 + CP (EC50).
In another series the target is T1, human cathepsin L (Homo sapiens, UniProt P07711).
T1 construct: purchased R&D Systems
Description: cathepsin L assay. Format: biochemical. Particulars: 10 pM human cathepsin L, Z-FR-AMC 2 μM, class symbols. In a few lines:
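Human cathepsin L at 10 pM was preincubated 30 min with compound, then reaction started with Z-FR-AMC (2 μM final). Fluorescence (355/460 nm) read every 2 min for 30 min; IC50 from four-parameter curve fit.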

Series [5] in a line: in vitro. Particulars: human.
The nature of series [6]: in vitro. Particulars: African green monkey, VeroE6 + CP (CC50), Vero E6-eGFP cells with CP-100356, absence of virus, MTS.
A further series deals with 3CLpro (Severe acute respiratory syndrome coronavirus 2, UniProt P0DTD1). Description: SARS-CoV-2 3CLpro protease assay (duplex, SAMDI-MS). On the set-up: For the duplex assay, 3CLpro and HRV3C was added. The settings on record: 30 mins preincubation, class symbols. The class given is biochemical.
[7] abbreviates: HRV3C, class symbols, read-out: HRV IC50.
Setting [8] is: OC43 in HeLa cells, 6 days at 33° C., class symbols, read-out: EC50.
Setting [9] is: 3CLpro, read-out: SARS-Cov-2 IC50.
Setting [10] is: HRV3C, bound, read-out: HRV IC50.

In the case of `COc1ccc2[nH]c(C(=O)N3C[C@@H]4CCC[C@@H]4[C@H]3C(=O)N[C@@H](C[C@@H]3CCNC3=O)C(=O)CO)cc2c1OC` [Compound 81, (1S,3aR,6aS)-2-(4,5-dimethoxy-1H-indole-2-carbonyl)-N-[(2S)-4-hydroxy-3-oxo-1-[(3S)-2-oxopyrrolidin-3-yl]butan-2-yl]-hexahydro-1H-cyclopenta[c]pyrrole-1-carboxamide], the figures for the IC50 at HRV3C (setting [7]), against human cathepsin L and on 3CLpro (setting [9]) were 2 to 20 µM, no less than 10 µM and 0.02 to 0.2 µM, respectively. Besides, the EC50 in series [1] (setting [8]) is 1 to 10 µM; in series [3] (class symbols) it was 10 to 100 µM; in series [4], 1 to 10 µM. In series [2], this compound displayed a CC50 at 6 days greater than 10 µM. Besides, the CC50 in “in vitro [5]” and in the series “in vitro [6]” (numeric bounds) was greater than 50 µM in each case.
For the compound `COc1cccc2[nH]c(C(=O)N3C[C@@H]4CCC[C@@H]4[C@H]3C(=O)N[C@@H](CC3CC(C)(C)NC3=O)C(=O)COCc3ccccc3)cc12` (relative stereo) [Compound 70A_1, (1S,3aR,6aS)—N-[(2S)-4-(benzyloxy)-1-[(3R*)-5,5-dimethyl-2-oxopyrrolidin-3-yl]-3-oxobutan-2-yl]-2-(4-methoxy-1H-indole-2-carbonyl)-hexahydro-1H-cyclopenta[c]pyrrole-1-carboxamide], the figures for the IC50 at HRV3C (setting [7]), on human cathepsin L and on 3CLpro (setting [9]) were 2 to 20 µM, no less than 10 µM and 0.02 to 0.2 µM, respectively. For the same compound, the figures for the EC50 in [1] (setting [8]), in series [3] (class symbols) and in series [4] were less than 0.1 µM, 1 to 10 µM and 1 to 10 µM, respectively. Also, the CC50 at 6 days in series [2] was greater than 10 µM. The CC50 in “in vitro [5]” and in “in vitro [6]” (class symbols) was greater than 10 µM in each case.
`C=C[C@@H]1C[C@@H](C(=O)N[C@@H](C[C@@H]2CCNC2=O)C(=O)C(=O)NCc2ccccc2)N(C(=O)c2cc3ccccc3[nH]2)C1` [Compound 30]: the IC50 was 0.2 to 2 µM on HRV3C (setting [7]), less than 0.1 µM on human cathepsin L and 0.02 to 0.2 µM on 3CLpro (setting [9]). Further, the EC50 fell in the range of 0.1 to 1 µM in series [1] (setting [8]), 1 to 10 µM in series [3] (class symbols) and 1 to 10 µM in series [4]. This compound also displayed a CC50 at 6 days in series [2] greater than 10 µM. Moreover, the CC50 in the series “in vitro [5]” and in “in vitro [6]” (numeric bounds) was greater than 100 µM throughout.
Regarding `COc1cccc2[nH]c(C(=O)N3C[C@@H]4CCC[C@@H]4[C@H]3C(=O)N[C@@H](C[C@@H]3CCNC3=O)C(=O)COP(=O)(O)O)cc12` [Compound 61, (3S)-3-1{[(1S,3aR,6aS)-2-(4-methoxy-1H-indole-2-carbonyl)-hexahydro-1H-cyclopenta[c]pyrrol-1-yl]formamido}-2-oxo-4-[(3S)-2-oxopyrrolidin-3-yl]butoxyphosphonic acid], the IC50 on HRV3C (setting [10]) is greater than 10 µM; against human cathepsin L it was no less than 10 µM; on 3CLpro (setting [9]), 0.2 to 2 µM. For the same compound, the EC50 in series [1] (setting [8]) fell in the range of 0.1 to 1 µM; in series [3] (class symbols) it was 1 to 10 µM; in series [4], 1 to 10 µM. The compound also gave a CC50 at 6 days in [2] greater than 10 µM. The CC50 in the series “in vitro [5]” and in “in vitro [6]” (numeric bounds) was greater than 100 µM in each case.
On to `CC(C)COCCNC(=O)C(=O)[C@H](C[C@@H]1CCNC1=O)NC(=O)[C@@H]1[C@H]2CCC[C@H]2CN1C(=O)c1cc2c(Cl)cc(Cl)cc2[nH]1` [Compound 149, (1S,3aR,6aS)-2-(4,6-dichloro-1H-indole-2-carbonyl)-N—((S)-4-((2-isobutoxyethyl)amino)-3,4-dioxo-1-((S)-2-oxopyrrolidin-3-yl)butan-2-yl)octahydrocyclopenta[c]pyrrole-1-carboxamide], for which the IC50 lay in the range of 2 to 20 µM on HRV3C (HRV IC50, HRV3C, class symbols); 1 to 10 µM against human cathepsin L; 0.02 to 0.2 µM on 3CLpro (setting [9]). In addition, the EC50 in [1] is 0.1 to 1 µM; in series [3] (class symbols), less than 1 µM; in series [4], less than 1 µM. This compound also came in with a CC50 at 6 days in series [2] greater than 10 µM. For the same compound, the CC50 was 1 to 10 µM in the series “in vitro [5]” and greater than 10 µM in “in vitro [6]” (class symbols).
Consider `COc1cccc2[nH]c(C(=O)N3C[C@@H]4CCC[C@@H]4[C@H]3C(=O)N[C@@H](C[C@@H]3CCNC3=O)C(=O)c3nc4ccccc4s3)cc12` [Compound 50, (1S,3aR,6aS)—N-[(2S)-1-(1,3-benzothiazol-2-yl)-1-oxo-3-[(3S)-2-oxopyrrolidin-3-yl]propan-2-yl]-2-(4-methoxy-1H-indole-2-carbonyl)-hexahydro-1H-cyclopenta[c]pyrrole-1-carboxamide], for which the IC50 at HRV3C (setting [10]) is greater than 10 µM; against human cathepsin L it was no less than 10 µM; on 3CLpro (setting [9]), 0.02 to 0.2 µM. Further, the EC50 was 0.1 to 1 µM in series [1] (setting [8]), 1 to 10 µM in [3] (class symbols) and 1 to 10 µM in [4]. The compound also came in with a CC50 at 6 days in [2] greater than 10 µM. For the same compound, the CC50 is greater than 10 µM in “in vitro [5]” and greater than 100 µM in the series “in vitro [6]” (numeric bounds).
For `CSc1cccc2[nH]c(C(=O)N3C[C@@H]4CCC[C@@H]4[C@H]3C(=O)N[C@@H](C[C@@H]3CCNC3=O)C(=O)CO)cc12` [Compound 154, (1S,3aR,6aS)—N—((S)-4-hydroxy-3-oxo-1-((S)-2-oxopyrrolidin-3-yl)butan-2-yl)-2-(4-(methylthio)-1H-indole-2-carbonyl)octahydrocyclopenta[c]pyrrole-1-carboxamide], the IC50 at HRV3C (setting [7]) was 2 to 20 µM; against human cathepsin L, no less than 10 µM; at 3CLpro (setting [9]), less than 0.02 µM. Moreover, the EC50 is 0.1 to 1 µM in series [1] (setting [8]), less than 1 µM in series [3] (class symbols) and 1 to 10 µM in series [4]. In series [2], this compound yielded a CC50 at 6 days greater than 10 µM. Besides, the CC50 in “in vitro [5]” and in the series “in vitro [6]” (numeric bounds) was greater than 50 µM throughout.
As to `COc1cccc2[nH]c(C(=O)N3C[C@H]4[C@@H]([C@H]3C(=O)N[C@@H](C[C@@H]3CCNC3=O)C(=O)C(N)=O)C4(C)C)cc12` [Compound 51, (3S)-3-{[(1R,2S,5S)-3-(4-methoxy-1H-indole-2-carbonyl)-6,6-dimethyl-3-azabicyclo[3.1.0]hexan-2-yl]formamido}-2-oxo-4-[(3S)-2-oxopyrrolidin-3-yl]butanamide], the IC50 on HRV3C (setting [7]) was 0.2 to 2 µM; against human cathepsin L, 0.1 to 1 µM; at 3CLpro (setting [9]), less than 0.02 µM. The EC50 was 1 to 10 µM in series [1] (setting [8]), greater than 100 µM in [3] (numeric bounds) and greater than 100 µM in series [4]. The same compound came in with a CC50 at 6 days in series [2] greater than 10 µM. Besides, the CC50 in “in vitro [5]” and in “in vitro [6]” (numeric bounds) was greater than 100 µM throughout.
On to `COc1ccc(Cl)c2[nH]c(C(=O)N3C[C@@H]4CCC[C@@H]4[C@H]3C(=O)N[C@@H](C[C@@H]3CCNC3=O)C(=O)CO)cc12` [Compound 89, (1S,3aR,6aS)-2-(7-chloro-4-methoxy-1H-indole-2-carbonyl)-N-[(2S)-4-hydroxy-3-oxo-1-[(3S)-2-oxopyrrolidin-3-yl]butan-2-yl]-hexahydro-1H-cyclopenta[c]pyrrole-1-carboxamide], for which the IC50 was greater than 10 µM against HRV3C (HRV IC50, HRV3C, bound); no less than 10 µM against human cathepsin L; less than 0.02 µM at 3CLpro (SARS-Cov-2 IC50, 3CLpro). Moreover, the EC50 is 0.1 to 1 µM in series [1] (setting [8]), less than 1 µM in series [3] (class symbols) and less than 1 µM in series [4]. Also, in [2], the CC50 at 6 days was greater than 10 µM. The CC50 in the series “in vitro [5]” is greater than 50 µM; in the series “in vitro [6]” (numeric bounds), greater than 100 µM.
For `O=C(NCc1ccccc1)C(=O)[C@H](C[C@@H]1CCNC1=O)NC(=O)[C@@H]1CC2(CCN1C(=O)c1cc3ccccc3[nH]1)CC2` [Compound 24], the IC50 on HRV3C (setting [7]) fell in the range of 20 to 100 µM; on human cathepsin L, 0.1 to 1 µM; at 3CLpro (setting [9]) it was 0.02 to 0.2 µM. For the same compound, the EC50 is 0.1 to 1 µM in series [1] (setting [8]), 1 to 10 µM in series [3] (class symbols) and 1 to 10 µM in series [4]. The CC50 at 6 days in [2] is greater than 10 µM. Further, the CC50 was greater than 10 µM in the series “in vitro [5]” and greater than 100 µM in “in vitro [6]” (numeric bounds).
